From ChEMBL document CHEMBL1201862, “PubChem BioAssay data set” (2004)
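The compound was tested at five concentrations on cells cultured in 96-well plates, with a 48-hour exposure period. GI50 is the concentration that inhibits growth by half.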 Calls of active or inactive are those of the source. No stated cut-off is given here; in the data, active = GI50 up to about 1.1 µM and inactive = higher.

Columns and labels:
Experiment in all cases: inhibition of tumour cell growth, NCI panel, 48 h
[1] = system: 786-0
[2] = system: A549
[3] = system: BT-549
[4] = system: CCRF-CEM
[5] = system: COLO 205
[6] = system: DU-145
[7] = system: HCT-116
[8] = system: HCT-15
[9] = system: HL-60
[10] = system: HOP-62
[11] = system: HOP-92
[12] = system: HT-29
[13] = system: Hs-578T
[14] = system: IGROV-1
[15] = system: K562
[16] = system: KM12
[17] = system: LOX IMVI
[18] = system: M14
[19] = system: MDA-MB-231
[20] = system: MDA-N
[21] = system: MOLT-4
[22] = system: Malme-3M
[23] = system: NCI-H23
[24] = system: NCI-H460
[25] = system: NCI-H522
[26] = system: NCI/ADR-RES
[27] = system: OVCAR-4
[28] = system: OVCAR-5
[29] = system: OVCAR-8
[30] = system: PC-3
[31] = system: RPMI-8226
[32] = system: RXF 393
[33] = system: SF-268
[34] = system: SF-295
[35] = system: SF-539
[36] = system: SK-MEL-28
[37] = system: SK-MEL-2
[38] = system: SK-MEL-5
[39] = system: SK-OV-3
[40] = system: SN12C
[41] = system: SNB-19
[42] = system: SNB-75
[43] = system: SR
[44] = system: SW-620
[45] = system: T47D
[46] = system: TK-10
[47] = system: U-251
[48] = system: UACC-257
[49] = system: UO-31
[50] = system: ACHN
[51] = system: CAKI-1
[52] = system: EKVX
[53] = system: HCC 2998
[54] = system: MCF7
[55] = system: MDA-MB-435
[56] = system: NCI-H226
[57] = system: OVCAR-3
[58] = system: UACC-62

**Q.** What does the source list for `Cc1ccc(S(=O)(=O)NC(=O)NC(Cc2ccc(O)cc2)C(=O)O)cc1` (centres undefined)?
**A.** GI50 [1]: > 100 µM (inactive); GI50 [2]: > 100 µM (inactive); GI50 [3]: > 100 µM (inactive); GI50 [4]: > 100 µM (inactive); GI50 [5]: > 100 µM (inactive); GI50 [6]: > 100 µM (inactive); GI50 [7]: > 100 µM (inactive); GI50 [8]: > 100 µM; GI50 [9]: > 100 µM (inactive); GI50 [10]: > 100 µM (inactive); GI50 [11]: > 100 µM (inactive); GI50 [12]: > 100 µM (inactive); GI50 [13]: > 100 µM (inactive); GI50 [14]: > 100 µM (inactive); GI50 [15]: > 100 µM (inactive); GI50 [16]: > 100 µM (inactive); GI50 [17]: > 100 µM (inactive); GI50 [18]: > 100 µM (inactive); GI50 [19]: > 100 µM (inactive); GI50 [20]: > 100 µM (inactive); GI50 [21]: > 100 µM (inactive); GI50 [22]: > 100 µM (inactive); GI50 [23]: > 100 µM (inactive); GI50 [24]: > 100 µM (inactive); GI50 [25]: > 100 µM (inactive); GI50 [26]: > 100 µM (inactive); GI50 [27]: > 100 µM (inactive); GI50 [28]: > 100 µM (inactive); GI50 [29]: > 100 µM (inactive); GI50 [30]: > 100 µM (inactive); GI50 [31]: > 100 µM (inactive); GI50 [32]: > 100 µM (inactive); GI50 [33]: > 100 µM (inactive); GI50 [34]: > 100 µM (inactive); GI50 [35]: > 100 µM (inactive); GI50 [36]: > 100 µM (inactive); GI50 [37]: > 100 µM (inactive); GI50 [38]: > 100 µM (inactive); GI50 [39]: > 100 µM (inactive); GI50 [40]: > 100 µM (inactive); GI50 [41]: > 100 µM (inactive); GI50 [42]: > 100 µM (inactive); GI50 [43]: > 100 µM (inactive); GI50 [44]: > 100 µM (inactive); GI50 [45]: > 100 µM (inactive); GI50 [46]: > 100 µM (inactive); GI50 [47]: > 100 µM (inactive); GI50 [48]: > 100 µM (inactive); GI50 [49]: > 100 µM (inactive)

**Q.** Which results are given for `C=C1C(=O)C23CC1CCC2C12CO[C@H](O)[C@H]1C(C)(C)[C@H](OC(C)=O)C[C@H]2OC3=O` (some centres undefined)?
**A.** GI50 [1]: 16 µM (inactive); GI50 [2]: > 100 µM (inactive); GI50 [50]: 15.9 µM (inactive); GI50 [3]: 9.48 µM (inactive); GI50 [51]: 15.2 µM (inactive); GI50 [4]: 6.14 µM (inactive); GI50 [5]: 15.1 µM (inactive); GI50 [6]: 25.5 µM (inactive); GI50 [52]: 15.1 µM (inactive); GI50 [53]: 22.6 µM (inactive); GI50 [7]: 14.8 µM (inactive); GI50 [8]: 14.6 µM; GI50 [9]: 16.6 µM (inactive); GI50 [11]: 10.1 µM (inactive); GI50 [12]: 13.4 µM (inactive); GI50 [13]: 34.4 µM (inactive); GI50 [14]: 31.9 µM (inactive); GI50 [15]: 5.9 µM (inactive); GI50 [16]: 23 µM (inactive); GI50 [17]: 18.1 µM (inactive); GI50 [18]: 25.4 µM (inactive); GI50 [54]: 15.8 µM (inactive); GI50 [19]: 19.8 µM (inactive); GI50 [55]: 21.5 µM (inactive); GI50 [20]: 16.1 µM (inactive); GI50 [21]: 15.2 µM (inactive); GI50 [22]: 13.3 µM (inactive); GI50 [56]: > 100 µM (inactive); GI50 [23]: 27.7 µM (inactive); GI50 [24]: 34.6 µM (inactive); GI50 [25]: 1.26 µM (inactive); GI50 [26]: 28.1 µM (inactive); GI50 [57]: 22.5 µM (inactive); GI50 [27]: > 100 µM (inactive); GI50 [28]: 18.8 µM (inactive); GI50 [29]: 30.6 µM (inactive); GI50 [30]: > 100 µM (inactive); GI50 [31]: 76.7 µM (inactive); GI50 [33]: 14.7 µM (inactive); GI50 [34]: > 100 µM (inactive); GI50 [35]: 20 µM (inactive); GI50 [36]: 17.1 µM (inactive); GI50 [37]: 15.3 µM (inactive); GI50 [38]: 30.8 µM (inactive); GI50 [39]: > 100 µM (inactive); GI50 [40]: 21.1 µM (inactive); GI50 [41]: > 100 µM (inactive); GI50 [42]: 46.2 µM (inactive); GI50 [44]: 14.3 µM (inactive); GI50 [45]: 19.7 µM (inactive); GI50 [46]: 14.3 µM (inactive); GI50 [47]: 64.1 µM (inactive); GI50 [48]: 30.3 µM (inactive); GI50 [58]: 15 µM (inactive); GI50 [49]: 22.9 µM (inactive)
